Data taken from patent publication US12679824B2 (Hoffmann-La Roche Inc., priority 2020, dated 2026).
Like-named read-outs stand apart in the source and are kept apart here.

Test system: Acinetobacter baumannii ATCC17961
Assay: 90% Growth Inhibitory Concentration (IC90) determination, antimicrobial susceptibility testing
Format: cell-based
Conditions: Acinetobacter baumannii, ATCC17961, 16 h, read-out: ATCC 17961 IC90
Method in brief: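 Broth microdilution in Iso-Sensitest medium, compounds twofold diluted (e.g. 50–0.097 μM final), inoculum ~5×10^(5) CFU/ml, 35±2° C. OD600 was read every 20 min over 16 h. IC90 was derived from growth inhibition during logarithmic growth.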

[1] = Acinetobacter baumannii ATCC17961, Iso-Sensitest broth, growth by optical density at 600 nm over 16h, concentration inhibiting 90% of the growth

Structure (SMILES) | IC90 [nM] | IC90 [1] [nM]
Cn1c(-c2cn(-c3ccc(N)cn3)nc2C(F)(F)F)cnc1C(=O)Nc1ccc(C(=O)N2CCC(CN3CCNCC3=O)CC2)c(Cl)c1 [Example I1, 5-[1-(5-Amino-2-pyridyl)-3-(trifluoromethyl)pyrazol-4-yl]-N-[3-chloro-4-[4-[(2-oxopiperazin-1-yl)methyl]piperidine-1-carbonyl]phenyl]-1-methyl-imidazole-2-carboxamide] | 1500 | –
Cn1c(-c2cn(-c3ccc(N)cn3)nc2C(F)(F)F)cnc1C(=O)Nc1ccc(C(=O)NCc2cc[nH]n2)c(Cl)c1 [Example I2, 5-[1-(5-amino-2-pyridyl)-3-(trifluoromethyl)pyrazol-4-yl]-N-[3-chloro-4-(1H-pyrazol-3-ylmethylcarbamoyl)phenyl]-1-methyl-imidazole-2-carboxamide] | – | 400
Cn1c(-c2cn(-c3ccc(N)cn3)nc2C(F)(F)F)cnc1C(=O)Nc1ccc(C(=O)N2CCN(C(=O)[C@@H]3CC(O)CCN3)CC2)c(Cl)c1 (stereo partly shown) [Example J1] | 580 | –
CCNc1ccc(-n2cc(-c3cnc(C(=O)Nc4ccc(C(=O)N5CCN(C(=O)C6CCNCC6)CC5)c(Cl)c4)n3C)c(C(F)(F)F)n2)nc1 [Example K1, N-[3-chloro-4-[4-(piperidine-4-carbonyl)piperazine-1-carbonyl]phenyl]-5-[1-[5-(ethylamino)-2-pyridyl]-3-(trifluoromethyl)pyrazol-4-yl]-1-methyl-imidazole-2-carboxamide] | 500 | –
Cn1c(-c2cn(-c3ccc(N)cn3)nc2C(F)(F)F)cnc1C(=O)Nc1ccc(C(=O)N2CC[C@H](CN)C2)c(Cl)c1 [Example Z1, N-[4-[(3R)-3-(aminomethyl)pyrrolidine-1-carbonyl]-3-chloro-phenyl]-5-[1-(5-amino-2-pyridyl)-3-(trifluoromethyl)pyrazol-4-yl]-1-methyl-imidazole-2-carboxamide] | 480 | –
Cn1c(-c2cn(-c3ccc(N)cn3)nc2C(F)(F)F)cnc1C(=O)Nc1ccc(C(=O)NCCCN)c(Cl)c1 [Example Z2, N-[4-(3-aminopropylcarbamoyl)-3-chloro-phenyl]-5-[1-(5-amino-2-pyridyl)-3-(trifluoromethyl)pyrazol-4-yl]-1-methyl-imidazole-2-carboxamide] | – | 980
Cn1c(-c2cn(-c3ccc(N)cn3)nc2C(F)(F)F)cnc1C(=O)Nc1ccc(C(=O)NCC2CCNCC2)c(Cl)c1 [Example Z3, 5-[1-(5-amino-2-pyridyl)-3-(trifluoromethyl)pyrazol-4-yl]-N-[3-chloro-4-(4-piperidylmethylcarbamoyl)phenyl]-1-methyl-imidazole-2-carboxamide] | – | 500
CNC1CCN(C(=O)c2ccc(NC(=O)c3ncc(-c4cn(-c5ccc(N)cn5)nc4C(F)(F)F)n3C)cc2Cl)CC1 [Example Z4, 5-[1-(5-amino-2-pyridyl)-3-(trifluoromethyl)pyrazol-4-yl]-N-[3-chloro-4-[4-(methylamino)piperidine-1-carbonyl]phenyl]-1-methyl-imidazole-2-carboxamide] | – | 220
Cn1c(-c2cn(-c3ccc(N)cn3)nc2C(F)(F)F)cnc1C(=O)Nc1ccc(C(=O)NC2(CO)CCNC2)c(Cl)c1 (stereo not shown) [Example Z5, 5-[1-(5-amino-2-pyridyl)-3-(trifluoromethyl)pyrazol-4-yl]-N-[3-chloro-4-[(3-methylolpyrrolidin-3-yl)carbamoyl]phenyl]-1-methyl-imidazole-2-carboxamide] | – | 1800
Cn1c(-c2cn(-c3ccc(N)cn3)nc2C(F)(F)F)cnc1C(=O)Nc1ccc(C(=O)NC2(CN)CC2)c(Cl)c1 [Example Z6, N-[4-[[1-(aminomethyl)cyclopropyl]carbamoyl]-3-chloro-phenyl]-5-[1-(5-amino-2-pyridyl)-3-(trifluoromethyl)pyrazol-4-yl]-1-methyl-imidazole-2-carboxamide] | – | 930
Cn1c(-c2cn(-c3ccc(N)cn3)nc2C(F)(F)F)cnc1C(=O)Nc1ccc(C(=O)N2CC[C@@H](CN)C2)c(Cl)c1 [Example Z7, N-[4-[(3S)-3-(aminomethyl)pyrrolidine-1-carbonyl]-3-chloro-phenyl]-5-[1-(5-amino-2-pyridyl)-3-(trifluoromethyl)pyrazol-4-yl]-1-methyl-imidazole-2-carboxamide] | – | 250
Cn1c(-c2cn(-c3ccc(N)cn3)nc2C(F)(F)F)cnc1C(=O)Nc1ccc(C(=O)N2CCC3(CCNC3)CC2)c(Cl)c1 [Example Z8, 5-[1-(5-amino-2-pyridyl)-3-(trifluoromethyl)pyrazol-4-yl]-N-[3-chloro-4-(2,8-diazaspiro[4.5]decane-8-carbonyl)phenyl]-1-methyl-imidazole-2-carboxamide] | – | 370
COCc1c[nH]nc1-n1cc(-c2cnc(C(=O)Nc3ccc(C(=O)N4CCN(C(=O)C5CCN(C)CC5)CC4)c(Cl)c3)n2C)c(C(F)(F)F)n1 [Example Z9, N-[3-chloro-4-[4-(1-methylpiperidine-4-carbonyl)piperazine-1-carbonyl]phenyl]-5-[1-[4-(methoxymethyl)-1H-pyrazol-3-yl]-3-(trifluoromethyl)pyrazol-4-yl]-1-methyl-imidazole-2-carboxamide] | – | 1080
Cn1c(-c2cn(-c3ccc(N)nc3)nc2C(F)(F)F)cnc1C(=O)Nc1ccc(C(=O)N2CCN(C(=O)C3CCNCC3)CC2)c(Cl)c1 [Example Z10, 5-[1-(6-amino-3-pyridyl)-3-(trifluoromethyl)pyrazol-4-yl]-N-[3-chloro-4-(4-isonipecotoylpiperazine-1-carbonyl)phenyl]-1-methyl-imidazole-2-carboxamide] | – | 330
Cn1c(-c2cn(-c3ccc(N)cn3)nc2C(F)(F)F)cnc1C(=O)Nc1ccc(C(=O)N[C@H]2C[C@@H](N)C2)c(Cl)c1 [Example Z11, N-[4-[cis-(3-aminocyclobutyl)carbamoyl]-3-chloro-phenyl]-5-[1-(5-amino-2-pyridyl)-3-(trifluoromethyl)pyrazol-4-yl]-1-methyl-imidazole-2-carboxamide] | – | 950
Cn1c(-c2cn(-c3ccc(N)cn3)nc2C(F)(F)F)cnc1C(=O)Nc1ccc(C(=O)N2CC3CNCC3C2)c(Cl)c1 (stereo not shown) [Example Z12, N-[4-(2,3,3a,4,6,6a-hexahydro-1H-pyrrolo[3,4-c]pyrrole-5-carbonyl)-3-chloro-phenyl]-5-[1-(5-amino-2-pyridyl)-3-(trifluoromethyl)pyrazol-4-yl]-1-methyl-imidazole-2-carboxamide] | – | 930
CN(C(=O)c1ccc(NC(=O)c2ncc(-c3cn(-c4ccc(N)cn4)nc3C(F)(F)F)n2C)cc1Cl)C1CCNCC1 [Example Z13, 5-[1-(5-amino-2-pyridyl)-3-(trifluoromethyl)pyrazol-4-yl]-N-[3-chloro-4-[methyl(4-piperidyl)carbamoyl]phenyl]-1-methyl-imidazole-2-carboxamide] | – | 420
Cn1c(-c2cn(-c3ccc(N)cn3)nc2C(F)(F)F)cnc1C(=O)Nc1ccc(C(=O)N2CCC(CN)CC2)c(Cl)c1 [Example Z14, N-[4-[4-(aminomethyl)piperidine-1-carbonyl]-3-chloro-phenyl]-5-[1-(5-amino-2-pyridyl)-3-(trifluoromethyl)pyrazol-4-yl]-1-methyl-imidazole-2-carboxamide] | – | 850
Cn1c(-c2cn(-c3ccc(N)cn3)nc2C(F)(F)F)cnc1C(=O)Nc1ccc(C(=O)NC2CC(CN)(CCl)C2)c(Cl)c1 (stereo not shown) [Example Z15, N-[4-[[3-(aminomethyl)-3-(chloromethyl)cyclobutyl]carbamoyl]-3-chloro-phenyl]-5-[1-(5-amino-2-pyridyl)-3-(trifluoromethyl)pyrazol-4-yl]-1-methyl-imidazole-2-carboxamide] | – | 910
Cn1c(-c2cn(-c3ccc(N)cn3)nc2C(F)(F)F)cnc1C(=O)Nc1ccc(C(=O)N[C@H]2CC[C@H](N)C2)c(Cl)c1 [Example Z16] | – | 860
Cn1c(-c2cn(-c3ccc(N)cn3)nc2C(F)(F)F)cnc1C(=O)Nc1ccc(C(=O)NCCN)c(Cl)c1 [Example Z17, N-[4-(2-aminoethylcarbamoyl)-3-chloro-phenyl]-5-[1-(5-amino-2-pyridyl)-3-(trifluoromethyl)pyrazol-4-yl]-1-methyl-imidazole-2-carboxamide] | 990 | –
Cn1c(-c2cn(-c3ccc(N)cn3)nc2C(F)(F)F)cnc1C(=O)Nc1ccc(C(=O)NCC2CC2N)c(Cl)c1 (stereo not shown) [Example Z18, N-[4-[(2-aminocyclopropyl)methylcarbamoyl]-3-chloro-phenyl]-5-[1-(5-amino-2-pyridyl)-3-(trifluoromethyl)pyrazol-4-yl]-1-methyl-imidazole-2-carboxamide] | – | 1590
Cn1c(-c2cn(-c3ccc(N)cn3)nc2C(F)(F)F)cnc1C(=O)Nc1ccc(C(=O)N[C@H]2C[C@H](N)C2)c(Cl)c1 [Example Z19, N-[4-[trans-(3-aminocyclobutyl)carbamoyl]-3-chloro-phenyl]-5-[1-(5-amino-2-pyridyl)-3-(trifluoromethyl)pyrazol-4-yl]-1-methyl-imidazole-2-carboxamide] | – | 950
Cn1c(-c2cn(-c3ccc(N)cn3)nc2C(F)(F)F)cnc1C(=O)Nc1ccc(C(=O)N2CCC(N)CC2)c(Cl)c1 [Example Z20, N-[4-(4-aminopiperidine-1-carbonyl)-3-chloro-phenyl]-5-[1-(5-amino-2-pyridyl)-3-(trifluoromethyl)pyrazol-4-yl]-1-methyl-imidazole-2-carboxamide] | – | 330
Cn1c(-c2cn(-c3ccc(N)cn3)nc2C(F)(F)F)cnc1C(=O)Nc1ccc(C(=O)NCCOCCN)c(Cl)c1 [Example Z21, N-[4-[2-(2-aminoethoxy)ethylcarbamoyl]-3-chloro-phenyl]-5-[1-(5-amino-2-pyridyl)-3-(trifluoromethyl)pyrazol-4-yl]-1-methyl-imidazole-2-carboxamide] | – | 670
